Common to all, as to assay: NCI anticancer screen, dose series, 48 h
Assay [1] has as its system DU-145 prostate.
The test system of assay [2] is SW-620 colon.
For assay [3], the system named is HL-60(TB) leukemia.
Assay [4] concerns MDA-N.
In assay [5] the test system is PC-3 prostate.
For assay [6], the system named is HCC-2998 colon.
Assay [7] deals with RXF 393 renal.
Assay [8] relates to OVCAR-4 ovarian.
The test system of assay [9] is TK-10 renal.
Assay [10] concerns SK-MEL-5 melanoma.
Assay [11] concerns K-562 leukemia.
Assay [12] has as its system NCI-H226 lung.
The subject of assay [13] is SR leukemia.
The test system of assay [14] is CAKI-1 renal.
Assay [15] relates to IGROV1 ovarian.
The subject of assay [16] is CCRF-CEM leukemia.
Assay [17] has as its system HCT-15 colon.
Assay [18] concerns HOP-92 NSCLC.
Assay [19] concerns U251 CNS.
In assay [20] the test system is SNB-19 CNS.

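A five-concentration, 48-hour dose response in 96-well plates underlies each endpoint, interpolated linearly between surrounding concentrations. TGI: total growth inhibition.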

Turning to `COc1cc(O)c2c(=O)c3ccccc3n(C)c2c1`, the TGI in assay [1], in assay [2], in assay [3], in [4], in assay [5] and in assay [6] was greater than 100 µM each time. The TGI in assay [7] is 51.4 µM; in assay [8], greater than 100 µM; in assay [9], greater than 100 µM; in assay [10], greater than 100 µM; in assay [11], greater than 100 µM; in [12], greater than 100 µM. The TGI in assay [13], in assay [14], in assay [15], in assay [16], in assay [17] and in assay [18] was greater than 100 µM each time. In addition, the TGI in assay [19] was greater than 100 µM.

For the compound `CCOC(=O)CCC(NC(=O)N1CCN(c2c(C)nc(C)[nH]c2=O)CC1)C(=O)OCC` (stereo unspecified), the TGI in assay [1], in assay [2], in assay [3], in assay [4], in [20] and in [5] was greater than 100 µM throughout. The TGI in assay [6], in assay [7], in assay [8], in assay [9], in [11] and in assay [12] was greater than 100 µM each time. The TGI in assay [13], in [14], in assay [15], in [16], in assay [17] and in [18] was greater than 100 µM in each case. The TGI in assay [19] was greater than 100 µM.

Consider `CSc1c(C#N)c(O)n(-c2ccc(Cl)cc2)c(=O)c1C#N`, for which the TGI in assay [1], in [2], in assay [3], in assay [4], in assay [20] and in assay [5] was greater than 100 µM throughout. Moreover, the TGI in [6], in assay [7], in assay [8], in [9], in assay [10] and in [11] was greater than 100 µM in each case. Further, the TGI in assay [12] is greater than 100 µM; in [13], greater than 100 µM; in assay [14], greater than 100 µM; in assay [15], greater than 100 µM; in [17], greater than 100 µM; in [18], 98 µM. The same compound came in with a TGI in assay [19] greater than 100 µM.

As for `C[C@@]12C[C@@H](c3ccccc3O1)N1CCSC1=N2`, the TGI in [1], in assay [2], in assay [3], in assay [4], in assay [20] and in [5] was greater than 100 µM each time. The TGI in assay [6], in assay [7], in assay [8], in [9], in assay [10] and in assay [11] was greater than 100 µM each time. In addition, the TGI in assay [12], in assay [13], in [14], in assay [15], in assay [17] and in assay [18] was greater than 100 µM in each case. Also, the TGI in [19] is greater than 100 µM.

As to `C/C(=C/CNc1ncnc2c1ncn2CCC(=O)O)CO`, the TGI in assay [1], in assay [2], in [3], in assay [4], in assay [20] and in [5] was greater than 100 µM in each case. For the same compound, the TGI in assay [6], in assay [7], in [8], in [9], in assay [10] and in [11] was greater than 100 µM each time. Further, the TGI in assay [12], in assay [13], in assay [14], in assay [15], in assay [16] and in assay [18] was greater than 100 µM throughout.

Consider `CCN(CC)C(=O)C1=C(C)NC(C)=C(C(=O)N(CC)CC)C1`, for which the TGI in assay [1], in assay [2], in assay [3], in assay [4], in [20] and in assay [5] was greater than 100 µM in each case. For the same compound, the TGI in assay [6], in assay [7], in [8], in [9], in assay [10] and in assay [11] was greater than 100 µM in each case. Moreover, the TGI in assay [13], in [14], in [15], in assay [16], in assay [17] and in [18] was greater than 100 µM throughout. Moreover, in assay [19], the TGI is greater than 100 µM.

Regarding `N#Cc1cc2c(n(C3OC(CO)C(O)C(O)C3O)c1=S)CCCCC2` (stereo unspecified), the TGI in assay [1], in assay [3], in [4], in [20], in assay [5] and in [6] was greater than 100 µM each time. Besides, the TGI in assay [7], in [8], in assay [9], in assay [10], in assay [11] and in [12] was greater than 100 µM in each case. In addition, the TGI in assay [13], in assay [14], in assay [15], in assay [16], in [17] and in assay [18] was greater than 100 µM throughout. The compound further registered a TGI in assay [19] greater than 100 µM.

With `COc1cccc2c3cccc(OC)c3c3[nH]cnc3c12`, the TGI in assay [1] came out at 2.78 µM; in assay [2] it was 3.19 µM; in assay [3], 2.38 µM; in assay [4] it was 3.34 µM; in assay [20], 26.9 µM; in [5], 4.6 µM. In addition, the TGI in assay [6] worked out at 11.9 µM; in [7], 3.42 µM; in assay [8], 12 µM; in assay [9], 3.91 µM; in assay [11] it was 7.16 µM; in [12], 32.7 µM. Further, the TGI in [13] came out at 5.15 µM; in [14] it was 37.9 µM; in [15], 3.46 µM; in assay [16], 3.4 µM; in assay [17], 3.42 µM; in [18] it was 24 µM. In [19], this compound registered a TGI of 3.03 µM.

These data come from PubChem BioAssay (NCI).
